Values quoted from earlier work, collected in EP0268926A2, “Safened sorptive granular pesticidal resin compositions for controlling soil borne pests and process for the preparation thereof” (priority 1986, dated 1988).

Test system: rats
Conditions: technical pesticide

CCOP(=S)(OCC)SCSCC [phorate, O,O-diethyl-S-(ethylthiomethyl)phosphorodithioate]
acute oral LD50 value in rats: 1.6-3.7 mg technical/kg
